Among the data in patent US8481738B2, “Gonadotropin-releasing hormone receptor antagonists and methods relating thereto” (Neurocrine Biosciences, Inc., priority 2007, dated 2013) are Ki values, retold here.

Where only a bound is given, the exact number is not on record here.

This experiment concerns the target T1, human GnRH receptor (Homo sapiens, UniProt P30968).
T1 construct: expressed in transfected cells; host or cells: RBL cells, stably transfected (in general)
T1 sequence (P30968 1-328): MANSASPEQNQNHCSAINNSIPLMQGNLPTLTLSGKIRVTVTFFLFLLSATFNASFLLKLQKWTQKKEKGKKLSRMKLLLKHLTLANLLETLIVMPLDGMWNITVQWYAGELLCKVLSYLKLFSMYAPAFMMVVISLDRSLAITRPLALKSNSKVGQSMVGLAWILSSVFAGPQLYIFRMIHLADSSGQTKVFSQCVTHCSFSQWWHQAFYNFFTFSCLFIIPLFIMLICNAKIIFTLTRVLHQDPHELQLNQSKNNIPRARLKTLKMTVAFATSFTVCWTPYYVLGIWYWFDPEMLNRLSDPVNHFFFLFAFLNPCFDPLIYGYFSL
Put plainly: Peptide competition radioligand binding displacement assay, human GnRH receptor membranes. The note with it: one or more of the peptide competition human receptor binding assays. The protocol:
cDNA's of human, rhesus macaque, rabbit, dog and rat GnRH receptors are cloned into pcDNA3.1 (+) (Invitrogen). Full length sequences of all receptors are confirmed by DNA sequencing. HEK 293, CHO, COS-7, or rat basophilic leukemia (RBL) cells are stably transfected with human, rat, or macaque GnRH receptors and high expressing single cell clones (Bmax≧0.4 pMol/mg membrane protein) are isolated and maintained in Dulbecco's Modified Eagles Medium (DMEM) with following supplements: 10 mM HEPES; 2 mM L-glutamine; 1 mM Sodium Pyruvate; 50 U/mL penicillin, 50 μg/mL streptomycin; 10% Heat-inactivated Fetal Bovine Serum and 200 μg/mL Geneticin (G-418-Sulfate). Non-essential amino acids (0.1 mM) (Irvine Scientific; Santa Ana, Calif.) are included in the RBL cell media.
In general, initial peptide radioligand binding assays are carried out using membranes from stably transfected RBL cells. RBL stable clones are found to more consistently express high levels of GnRH receptor and are therefore used for subsequent binding studies as well as Ca^++ flux and inositol phosphate accumulation assays. Transiently transfected COS-7 cells are used for preparation of membranes containing GnRH receptors from multiple species (as well as those of mutant receptors for other studies) because of the convenience for rapidly analyzing multiple receptors.
HEK293 cells stably transfected with the human GnRH receptor are grown for two days after achieving confluence then are harvested by striking tissue culture flasks against a firm surface. Cells are collected by centrifugation at 1000 g for 5 minutes. Cell pellets are resuspended in 5% sucrose and homogenized using a polytron homogenizer for two 15 second homogenization steps. Cell homogenates are then centrifuged for 5 minutes at 3000 g to remove nuclei and the supernatant subsequently centrifuged for 30 minutes at 44,000 g to collect the membrane fraction. The membrane pellet is resuspended in GnRH binding buffer (10 mM HEPES, pH 7.5, 150 mM NaCl and 0.1% BSA) and aliquots immediately snap-frozen in liquid nitrogen and stored at −80° C. Protein content of the membrane suspension is determined using the Bio-Rad protein assay kit (Bio-Rad).
RBL cells stably transfected with the human GnRH receptor are grown to 80% confluency prior to harvesting. The cells are incubated at 37° C. for 10 min in 0.5 mM EDTA/PBS (Ca^++, Mg^++ free), and are dislodged from the plate by gentle rapping of the flasks. Cells are collected and pelleted by centrifugation at 1000 g for 5 minutes. Cell pellets are resuspended in buffer (DPBS supplemented with 10 mM MgCl2, 2 mM EGTA, pH=7.4), and cell lysis is performed using a pressure cell and applying N2 at a pressure of 900 psi for 30 min at 4° C. Unbroken cells and larger debris were removed by centrifugation at 1200 g for 10 min at 4° C. The cell membrane supernatant is then centrifuged at 45,000 g and the resulting membrane pellet is resuspended in assay buffer and homogenized on ice using a tissue homogenizer. Protein concentrations are determined using the Coomassie Plus Protein Reagent kit. Membranes are aliquoted and stored at −80° C. until ready for use.
COS-7 cells transiently transfected with GnRH receptors from different species (human, macaque, dog, rabbit, rat) or mutant GnRH receptors are prepared by bulk electroporation. COS-7 cells are obtained from American Type Cell Culture (Manassas, Va.) and are maintained in Dulbeccos's modified Eagle's medium (DMEM) (MediaTech Inc., Herndon, Va.) containing 10% fetal bovine serum, 10 mM HEPES, 2 mM L-glutamine, 1 mM sodium pyruvate, 50 U/mL penicillin, 50 μg/mL streptomycin. COS-7 cells are seeded in 500 cm^2 tissue culture plates and grown to confluency prior to cell transfection. […]
In turn, `Cc1cc(Cl)ncc1-c1cc(C(=O)N(C)c2ccccc2CCCC(=O)O)ccc1Cl` [14-1, 4-(2-{[4-Chloro-3-(6-chloro-4-methyl-pyridin-3-yl)-benzoyl]-methyl-amino}-phenyl)-butyric acid] had a Ki of at most 100 nM.
For `COc1ccccc1N(C(=O)c1ccc(Cl)c(-c2ncc(Cl)cc2Cl)c1)C1CC1` [18-1, 4-Chloro-N-cyclopropyl-3-(3,5-dichloro-pyridin-2-yl)-N-(2-methoxy-phenyl)-benzamide], the Ki was at most 100 nM.
As for `COC(=O)CCCc1ccccc1N(C)C(=O)c1ccc(Cl)c(-c2cnc(C(F)(F)F)cc2C#N)c1` [13-3], the figure is at most 100 nM; as for `CN(C(=O)c1ccc(Cl)c(-c2ccc(Cl)cc2C#N)c1)c1ccccc1OCCCC(=O)O` [5-6], at most 100 nM; as for `COC(=O)c1ccccc1N(C)C(=O)c1cc(-c2cnc(C(F)(F)F)cc2C#N)c(Cl)cc1OCCCC(=O)O` [34-10], at most 100 nM.
Turning to `COc1ccccc1N(C)C(=O)c1cc(-c2cnc(C(F)(F)F)cc2C#N)c(Cl)cc1OCCCn1ccnc1` [42-11], the Ki was at most 100 nM.
`COc1ccccc1N(C)C(=O)c1cc(-c2cnc(C(F)(F)F)cc2C#N)c(Cl)cc1OCCc1cnccn1` [46-3] returned an inhibitory constant (Ki) of at most 100 nM.
The figure for `COc1cccc(C)c1N(C)C(=O)c1ccc(Cl)c(-c2cnc(SC)cc2C)c1` [26-1, 4-Chloro-N-(2-methoxy-6-methyl-phenyl)-N-methyl-3-(4-methyl-6-methyl-sulfanylpyridin-3-yl)-benzamide] is at most 100 nM; for `COc1cc(Cl)c(-c2cnc(C(F)(F)F)cc2C#N)cc1C(=O)N(C)c1c(F)cccc1OC` [39-4] it is at most 100 nM.
On to `Cc1cnc(-c2cc(C(=O)N(C)c3cccc(C)c3C)ccc2Cl)c(C)c1` [2-68], for which the Ki was at most 100 nM.
In the case of `COc1ccccc1N(C)C(=O)c1cc(-c2cnc(C(F)(F)F)cc2C#N)c(Cl)cc1OCCCOc1ccccn1` [42-15], the inhibition constant (Ki) was at most 100 nM.
`COc1ccccc1N(C)C(=O)c1cc(-c2cnc(C(F)(F)F)cc2C#N)c(Cl)cc1OCCCc1cn[nH]c1` [42-7]: the Ki is at most 100 nM.
As for `CC(C)CCN(C)C(=O)c1cc(-c2cnc(C(F)(F)F)cc2C#N)c(Cl)cc1OCCCC(=O)O` [34-23], the figure is at most 100 nM; as for `COc1ccccc1N(C)C(=O)c1cc(-c2cnc(C(F)(F)F)cc2C#N)c(Cl)cc1OCCN` [42-16], at most 100 nM.
As for `Cc1cc(C(F)(F)F)ncc1-c1cc(C(=O)N(C)c2ccccc2CCCC(=O)O)ccc1Cl` [14-2], the figure is at most 100 nM.
`Cc1cccc(C)c1N(C)C(=O)c1cc(-c2cnc(C(F)(F)F)cc2C#N)c(Cl)cc1OCCCCO` [21-4] yielded a Ki of at most 100 nM.
As for `COc1ccccc1N(C)C(=O)c1ccc(Cl)c(-c2nc3ccccc3cc2C=O)c1` [2-48], the figure is at most 100 nM; as for `COc1ccccc1N(C)C(=O)c1cc(-c2cnc(C(F)(F)F)cc2C#N)c(Cl)cc1OCCNC(=O)C(F)(F)F` [47-4], at most 100 nM; as for `COc1ccccc1N(C)C(=O)c1ccc(Cl)c(-c2ccc(C(F)(F)F)nc2)c1` [2-11], at most 100 nM.
Consider `CN(C(=O)c1ccc(Cl)c(-c2nc3c(F)cccc3cc2C#N)c1)c1ccccc1OCCCC(=O)O` [33-2], for which the Ki is at most 100 nM.
Compound `COC(=O)COc1ccccc1N(C)C(=O)c1ccc(Cl)c(-c2cnc(Cl)cc2C)c1` [3-1, (2-{[4-chloro-3-(6-chloro-4-methyl-pyridin-3-yl)-benzoyl]-methyl-amino}-phenoxy)-acetic acid methyl ester] had a Ki of at most 100 nM.
Compound `Cc1cnc(-c2cc(C(=O)N(C)c3cccc(C)c3C)ccc2Cl)c(Cl)c1` [2-67] had a Ki of at most 100 nM.
`COc1cccc(C)c1N(C)C(=O)c1cc(-c2cnc(C(F)(F)F)cc2C#N)c(Cl)cc1OCCCO` [21-8] gave a Ki of at most 100 nM.
`Cc1c(F)cccc1N(C)C(=O)c1ccc(Cl)c(-n2c(C)cc(C(F)(F)F)nc2=O)c1` [30-7] had a Ki of at most 100 nM.
As for `Cc1cc(Cl)ncc1-c1cc(C(=O)N(C)c2ccccc2OCCC(=O)O)ccc1Cl` [11-2], the figure is at most 100 nM.
As to `Cc1cccc(O)c1N(C)C(=O)c1ccc(Cl)c(-c2cnc(C(F)(F)F)cc2C#N)c1` [8-7], the inhibition constant Ki was at most 100 nM.
As for `COc1cc(Cl)ccc1N(C)C(=O)c1cc(-c2cnc(C(F)(F)F)cc2C#N)c(Cl)cc1OCCCC(=O)O` [34-2], the figure is at most 100 nM; as for `COc1ccccc1N(C)C(=O)c1ccc(Cl)c(-c2ncc(Cl)cc2C)c1` [2-57], at most 100 nM; as for `COc1cccc(C)c1N(C)C(=O)c1cc(-c2cnc(C(F)(F)F)cc2C#N)c(Cl)cc1OCCCCO` [21-1, 4-Chloro-5-(4-cyano-6-trifluoromethyl-pyridin-3-yl)-2-(4-hydroxy-butoxy)-N-(2-methoxy-6-methyl-phenyl)-N-methyl-benzamide], at most 100 nM.
As for `CN(C(=O)c1ccc(Cl)c(-c2cnc(C(F)(F)F)cc2C#N)c1)c1ccccc1OCCC(=O)N1CCNCC1` [53-2, 4-Chloro-3-(4-cyano-6-trifluoromethyl-pyridin-3-yl)-N-methyl-N-[2-(3-oxo-3-piperazin-1-yl-propoxy)-phenyl]-benzamide], the figure is at most 100 nM; as for `COc1ccccc1N(C)C(=O)c1cc(-c2cnc(C(F)(F)F)cc2C#N)c(Cl)cc1OCCNS(C)(=O)=O` [48-1, 4-Chloro-5-(4-cyano-6-trifluoromethyl-pyridin-3-yl)-2-(2-methanesulfonylamino-ethoxy)-N-(2-methoxy-phenyl)-N-methyl-benzamide], at most 100 nM; as for `CN(C(=O)c1ccc(Cl)c(-c2cnc(C(F)(F)F)cc2C#N)c1)c1ccccc1OCCCC(=O)O` [4-10], at most 100 nM.
As for `COc1ccc(OC)c(N(C)C(=O)c2cc(-c3cnc(C(F)(F)F)cc3C#N)c(Cl)cc2OCCCC(=O)O)c1` [34-13], the figure is at most 100 nM; as for `COc1ccccc1N(C)C(=O)c1ccc(Cl)c(-c2ncnc3scc(C)c23)c1` [2-50], at most 100 nM.
In the case of `CN(C(=O)c1ccc(Cl)c(-c2cnc(C(F)(F)F)cc2C#N)c1)c1ccccc1OCCc1n[nH]c(=O)[nH]1` [40-1, 4-Chloro-3-(4-cyano-6-trifluoromethyl-pyridin-3-yl)-N-methyl-N-{2-[2-(5-oxo-4,5-dihydro-1H-[1,2,4]triazol-3-yl)-ethoxy]-phenyl}-benzamide], the Ki was at most 100 nM.
`COc1ccccc1N(C)C(=O)c1ccc(Cl)c(-c2cnc(C(F)(F)F)cc2C)c1` [2-12] displayed a Ki of at most 100 nM.
On to `COc1c(Cl)cccc1N(C)C(=O)c1ccc(Cl)c(-c2ncc(C)cc2C)c1` [2-70], for which the Ki is at most 100 nM.
The figure for `Cc1cc(C(F)(F)F)ncc1-c1cc(C(=O)N(C)c2cccc(F)c2OCCCC(=O)O)ccc1Cl` [4-7] is at most 100 nM.
The figure for `COc1ccccc1N(C)C(=O)c1ccc(Cl)c(-c2ncc(Cl)cc2Cl)c1` [19-2, 4-chloro-3-(3,5-dichloro-pyridin-2-yl)-N-(2-methoxy-phenyl)-N-methyl-benzamide] is at most 100 nM; for `COc1cccc(C)c1N(C)C(=O)c1ccc(Cl)c(-c2cnc(C)cc2Cl)c1` [2-27] it is at most 100 nM.
As for `COc1ccccc1N(C)C(=O)c1ccc(Cl)c(-c2ccc(Cl)cc2C#N)c1` [2-55], the figure is at most 100 nM; as for `COc1cccc(C)c1N(C)C(=O)c1cc(-c2cnc(C(F)(F)F)cc2C#N)c(Cl)cc1OCC(=O)O` [22-9], at most 100 nM.

A word on the Ki: it is a dissociation constant, usually derived from enzyme kinetics or from competition with a known ligand.
